Values of other authors, collected in patent US20150338392A1, “Sterile and instantly dissolvable drug membrane and method thereof for testing drug sensitivity of antineoplastic drugs” (priority 2013, published 2015).

Legend:
[1] = test system: non-small cell lung cancer; conditions: clinical, background statement
invasive breast cancer = conditions: clinical, background statement

SMILES | patients who receive no obvious effect [1] | invasive breast cancer patients who are not sensitive to the drug (invasive breast cancer) [%]
Nc1ccn([C@@H]2O[C@H](CO)[C@@H](O)C2(F)F)c(=O)n1 [Gemzar] | more than 60% | –
COc1cccc2c1C(=O)c1c(O)c3c(c(O)c1C2=O)C[C@@](O)(C(=O)CO)C[C@@H]3O[C@H]1C[C@H](N)[C@H](O)[C@H](C)O1 [doxorubicin] | – | 50
